Experimental findings from US20230263758A1, “COMPOSITIONS OF EDTA HAVING ACTIVITY AGAINST PLANKTONIC AND BIOFILM CELLS OF CLINICALLY RELEVANT PATHOGENS” (SterileCare Inc., priority 2022, published 2023) are described below.

Where a name gives a salt, the structure may show the parent alone.

One test has as its system MRSA ON184. Description: Checkerboard, FMCI. Conditions: EDTA + chlorhexidine HCl. It counts as cell-based, Staphylococcus aureus. As to the method:
(§1) An assay was made using a minimum inhibitory concentration (MIC) and minimum bactericidal concentration (MBC) and minimum fungicidal concentration (MFC) determination. The MIC was determined by the micro broth dilution method in 96-well plates. Serial two-fold dilutions of tetrasodium EDTA (from 2% to 0.015%), ethanol (from 50% to 0.1%) and chlorhexidine HCl (from 100 μg/mL to 0.025 μg/mL) were prepared in MH broth with a final volume of 90 μL per well. A 10 μL containing 1×10^5 bacterial cells or 2×10^3 fungal cells were added to each well. The inoculated plates were covered with a lid, sealed with Parafilm, and incubated for 24 h at 37° C. with slight rocking on a tilting platform shaker. After incubation, the optical density at 600 nm (OD 600) of the cultures in each well was measured using an xMark™ Microplate Absorbance Spectrophotometer (Bio-Rad). […] MBCs and MFCs were determined by transferring 100 μL from each well with no apparent growth onto appropriate agar plates, followed by incubation for 24 h at 37° C.
A fourth composition and solution included tetrasodium EDTA with ethanol or chlorhexidine HCl. […] The concentrations of antimicrobials used were based on previously determined MIC values. […] Microtiter plates were incubated at 37° C. for 24 h, and the results were analyzed. […]

Test [1] has as its system C. albicans ON47. In words: MBEC assay, 48-h biofilm. The test is classed as cell-based, Candida albicans. To be noted: C. albicans ON47 48-h biofilm; 24 h exposure. The method, then: A biofilm cultivation cell composition was provided. This fifth composition was created using an MBEC Assay® biofilm inoculator, consisting of a polystyrene lid with 96 downward-protruding pegs and a corresponding base used to grow biofilms. A standardized inoculum was diluted in an appropriate biofilm growth medium to achieve a viable cell count of 1.5×10^6 CFU/mL of bacterial cells or 5×10^5 CFU/mL of fungal cells. Then, 150 μL of this inoculum was transferred into each appropriate well, and the peg lids were inserted into the microtiter plates. The plates were sealed with Parafilm and were incubated at optimum temperature for 48 h with slight rocking for bacteria and shaking at 200 rpm for fungal strains. After incubation, the peg lid was removed from the base and rinsed twice with sterile phosphate-buffered saline (PBS) for 2 min to remove loosely attached non-sessile cells. Before the antimicrobial challenge, the pegs in column 1 (n=8) were considered the biofilm growth control; these pegs were removed from the lids, placed into 200 μL of recovery medium, and analyzed for starting biofilm cell numbers as described below. […] MBEC values were determined as the minimum concentration of antimicrobials that yielded a viable cell count at or lower than the 125 CFU/mL detection limit.

In test [2] the test system is Candida albicans SK4b. Description: MIC, micro broth dilution. Conditions: C. albicans SK4b; agent alone. The test is classed as cell-based. The method, then:
as §1

Test [3] concerns Proteus mirabilis ON153. Description: MIC, micro broth dilution. Conditions: P. mirabilis ON153; agent alone. The test is classed as cell-based. As to the method: as §1
Test [4] deals with Pseudomonas aeruginosa SK1. In words: MIC, micro broth dilution. It counts as cell-based. To be noted: P. aeruginosa SK1; agent alone. As to the method: as §1
The subject of test [5] is Serratia marcescens SK2. Description: MIC, micro broth dilution. It counts as cell-based. Conditions: S. marcescens SK2; agent alone. As to the method:
as §1

The subject of test [6] is Staphylococcus epidermidis ON170. Description: MIC, micro broth dilution. The test is classed as cell-based. To be noted: S. epidermidis ON170; agent alone. The method, then: as §1
The test system of test [7] is Escherichia coli ON29. In words: MIC, micro broth dilution. To be noted: E. coli ON29; agent alone. The test is classed as cell-based. As to the method:
as §1

Test [8] deals with Stenotrophomonas maltophilia ON17. In words: MIC, micro broth dilution. The test is classed as cell-based. Conditions: S. maltophilia ON17; agent alone. The method, then:
as §1

Test [9] has as its system Staphylococcus aureus ON89. In words: MIC, micro broth dilution. It counts as cell-based. Conditions: S. aureus ON89; agent alone. As to the method:
as §1

The test system of test [10] is C. albicans ON47. Description: Checkerboard FBEC index, 48-h biofilm. The test is classed as cell-based, Candida albicans. Conditions: EDTA + chlorhexidine HCl.
Experimental: (§3) In step (4), microtiter plates are incubated at 37° C. for 24 h. then (6), after incubation, the bacterial and fungal cells were dislodged from the pegs into the recovery medium described above.
Three 10-μL aliquots, for a total of 30 μL from each well of recovery medium, were spotted on MH agar plates and incubated for 24 h at 37° C.
The subject of test [11] is C. albicans ON47. Description: MBC/MFC determination. It counts as cell-based, Candida albicans. Conditions: agent alone. As to the method: as §1
Test [12] relates to Candida albicans SK4b. Description: MBC/MFC determination. It counts as cell-based. To be noted: C. albicans SK4b; agent alone. The method, then:
as §1

Test [13] concerns Proteus mirabilis ON153. In words: MBC/MFC determination. The test is classed as cell-based. To be noted: P. mirabilis ON153; agent alone. The method, then:
as §1

Test [14] has as its system Serratia marcescens SK2. Description: MBC/MFC determination. It counts as cell-based. To be noted: S. marcescens SK2; agent alone. As to the method: as §1
The subject of test [15] is Staphylococcus epidermidis ON170. In words: MBC/MFC determination. It counts as cell-based. Conditions: S. epidermidis ON170; agent alone. As to the method: as §1
Test [16] deals with Escherichia coli ON29. Description: MBC/MFC determination. The test is classed as cell-based. Conditions: E. coli ON29; agent alone. As to the method: as §1
Test [17] relates to Stenotrophomonas maltophilia ON17. In words: MBC/MFC determination. The test is classed as cell-based. To be noted: S. maltophilia ON17; agent alone. The method, then: as §1
Test [18] relates to Staphylococcus aureus ON89. In words: MBC/MFC determination. Conditions: S. aureus ON89; agent alone. The test is classed as cell-based. The method, then: as §1
For test [19], the system named is Candida albicans SK4b. In words: MBEC assay, 48-h biofilm. It counts as cell-based. Conditions: C. albicans SK4b 48-h biofilm; 24 h exposure. The method, then:
(§2) A biofilm cultivation cell composition was provided. This fifth composition was created using an MBEC Assay® biofilm inoculator, consisting of a polystyrene lid with 96 downward-protruding pegs and a corresponding base used to grow biofilms. A standardized inoculum was diluted in an appropriate biofilm growth medium to achieve a viable cell count of 1.5×10^6 CFU/mL of bacterial cells or 5×10^5 CFU/mL of fungal cells. Then, 150 μL of this inoculum was transferred into each appropriate well, and the peg lids were inserted into the microtiter plates. The plates were sealed with Parafilm and were incubated at optimum temperature for 48 h with slight rocking for bacteria and shaking at 200 rpm for fungal strains. After incubation, the peg lid was removed from the base and rinsed twice with sterile phosphate-buffered saline (PBS) for 2 min to remove loosely attached non-sessile cells. Before the antimicrobial challenge, the pegs in column 1 (n=8) were considered the biofilm growth control; these pegs were removed from the lids, placed into 200 μL of recovery medium, and analyzed for starting biofilm cell numbers as described below. The rinsed pegs were placed into new 96-well plates containing two-fold dilutions of antimicrobials such as tetrasodium EDTA (4%-0.0125%), ethanol (100%-0.2%), and chlorhexidine HCl (100 μg/mL-0.4 μg/mL) in 200 μL of suitable biofilm growth medium per well and incubated at optimum temperature for 24 h. After the antimicrobial challenge, the pegs were rinsed twice with sterile PBS for 2 min and placed into a new 96-well plate containing 200 μL of recovery medium. The recovery plates were sealed with Parafilm, and biofilm cells were dislodged from the pegs by sonication for 30 min with a Branson 3510 bath sonicator. The biofilm cells in the recovery medium were serially diluted, and a drop dilution assay was performed to enumerate the viable cells. MBEC values were determined as the minimum concentration of antimicrobials that yielded a viable cell count at or lower than the 125 CFU/mL detection limit.

Test [20] has as its system Proteus mirabilis ON153. In words: MBEC assay, 48-h biofilm. The test is classed as cell-based. To be noted: P. mirabilis ON153 48-h biofilm; 24 h exposure. The method, then: as §2
In the next test the test system is Escherichia coli SK2. Description: MBEC assay, 48-h biofilm. It counts as cell-based. Conditions: E. coli SK2 48-h biofilm; 24 h exposure. As to the method:
as §2

Test [21] relates to Staphylococcus aureus ON89. Description: MBEC assay, 48-h biofilm. Conditions: S. aureus ON89 48-h biofilm; 24 h exposure. The test is classed as cell-based. As to the method:
as §2

Test [22] concerns Candida albicans SK4b. In words: Checkerboard FBEC index, 48-h biofilm. The test is classed as cell-based. Conditions: C. albicans SK4b biofilm; EDTA + chlorhexidine HCl.
Experimental: as §3
Three 10-μL aliquots, for a total of 30 μL from each well of recovery medium, were spotted on MH agar plates and incubated for 24 h at 37° C. […] The FBEC determination is a modification of the FICI.

As for `[H]/N=C(\N/C(=N/[H])NCCCCCCNC(=N)NC(=N)Nc1ccc(Cl)cc1)Nc1ccc(Cl)cc1` [Chlorhexidine HCl, chlorhexidine HCl, reference compound], the “Microbicidal concentration in combination” value in the test with MRSA ON184 came to 0.4 µg/mL.

On to `O=C([O-])CN(CCN(CC(=O)[O-])CC(=O)[O-])CC(=O)[O-].[Na+].[Na+].[Na+].[Na+]` [EDTA, tetrasodium EDTA], for which the MBEC with C. albicans ON47 [1] was found to be 1 % w/v; in the test with Candida albicans SK4b [19], 1 % w/v; with Proteus mirabilis ON153 [20], 4 % w/v; in the test on Escherichia coli SK2 it was 2 % w/v; in test [21] it was 4 % w/v. Moreover, the MIC with Candida albicans SK4b [2] came out at 1 % w/v; in the test with Proteus mirabilis ON153 [3], 1 % w/v; in test [4], 0.25 % w/v; in the test on Serratia marcescens SK2 [5], 2 % w/v; in test [6], 0.063 % w/v; against Escherichia coli ON29 [7] it was 0.5 % w/v. Also, the MIC in test [8] and in [9] was 0.063 % w/v in each case. For the same compound, the “Biofilm eradication concentration in combination (FBEC)” value came out at 0.031 % w/v in the test with C. albicans ON47 [10] and 0.063 % w/v with Candida albicans SK4b [22]. For the same compound, the MBC/MFC in the test with C. albicans ON47 [11] amounted to 1 % w/v; with Candida albicans SK4b [12], 1 % w/v; in the test with Proteus mirabilis ON153 [13], 2 % w/v; in the test with Serratia marcescens SK2 [14], 2 % w/v; in [15], 0.5 % w/v; against Escherichia coli ON29 [16], 1 % w/v. Besides, the MBC/MFC in [17] and in [18] was 1 % w/v throughout.
